According to patent US20240270821A1, “GIP/GLP1/GCG TRI-RECEPTOR AGONISTS AND USES THEREOF” (priority 2023, published 2024):
Starred links: 1 amine or outer side, 2 acyl side, 3 side chain; linkers in the order of their positions; H or OH if unused. Non-standard residues stand in square brackets, D forms with d. Residues, ends and D or L forms follow the SMILES beside them. Groups on a side chain read outwards from the residue. *: point of attachment. C18 diacid = O=C(O)CCCCCCCCCCCCCCCCC(=O)*; αMePhe(2-F) = C[C@](N)(Cc1ccccc1F)C(=O)O; γGlu = O=C(O)[C@H](CCC(=O)[*:2])N[*:1]; αMeY = C[C@](N)(Cc1ccc(O)cc1)C(=O)O; 3Pal = N[C@@H](Cc1cccnc1)C(=O)O; 4Pal = N[C@@H](Cc1ccncc1)C(=O)O; αMeL = CC(C)C[C@](C)(N)C(=O)O; αMeS = C[C@](N)(CO)C(=O)O; Orn = NCCC[C@H](N)C(=O)O; AEEA = NCCOCCOCC(=O)O; Aib = CC(C)(N)C(=O)O

Legend:
Type in all cases: cell-based
hGIPR [1] = biological target: T1, hGIPR (Homo sapiens, UniProt P48546); assay: Functional cAMP activation in the presence of 0.1% casein (no HSA); settings: read-out: Relative cAMP EC50, hGIPR;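 also: intracellular cAMP rise after 30 min at 37 °C read by HTRF against a standard curve, scaled between buffer alone (0%) and top control ligand concentration (100%), four-parameter fit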
T1 sequence (P48546 22-466): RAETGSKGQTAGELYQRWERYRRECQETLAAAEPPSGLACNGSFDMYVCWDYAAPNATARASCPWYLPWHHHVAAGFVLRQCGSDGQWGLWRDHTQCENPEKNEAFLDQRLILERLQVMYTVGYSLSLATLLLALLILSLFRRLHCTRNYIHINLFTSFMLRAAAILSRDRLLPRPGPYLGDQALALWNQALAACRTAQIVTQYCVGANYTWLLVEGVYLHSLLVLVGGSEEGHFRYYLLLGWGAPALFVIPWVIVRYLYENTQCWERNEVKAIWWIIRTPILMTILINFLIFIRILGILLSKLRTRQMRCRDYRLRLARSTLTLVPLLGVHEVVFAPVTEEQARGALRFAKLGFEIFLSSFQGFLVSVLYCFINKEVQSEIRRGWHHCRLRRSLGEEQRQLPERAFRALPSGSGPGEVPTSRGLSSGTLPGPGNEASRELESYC

hGcgR = hGcgR (Homo sapiens, UniProt P47871); assay: as above; settings: read-out: Relative cAMP EC50, hGcgR;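 also: intracellular cAMP rise after 30 min at 37 °C, read by HTRF against a cAMP standard curve, scaled from buffer only (0%) to maximal control ligand response (100%)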
hGLP-1R [2] = biological target: T2, hGLP-1R (Homo sapiens, UniProt P43220); assay: Functional cAMP activity in the presence of 1% HSA; settings: read-out: cAMP Rel EC50, hGLP-1R
hGIPR [3] = biological target: T1, hGIPR; assay: Functional cAMP activity in the presence of 1% HSA; settings: read-out: cAMP Rel EC50, hGIPR
hGLP-1R [4] = biological target: T2, hGLP-1R; assay: Functional cAMP activation in the presence of 0.1% casein (no HSA); settings: read-out: Relative cAMP EC50, hGLP-1R;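 as to Relative cAMP EC50, hGLP-1R: intracellular cAMP rise after 30 min at 37 °C read by HTRF, normalized between buffer only (0%) and maximal control ligand (100%), four-parameter variable-slope fit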;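 as to Relative cAMP EC50, hGcgR: intracellular cAMP rise after 30 min at 37 °C, read by HTRF against a cAMP standard curve, scaled from buffer only (0%) to maximal control ligand response (100%)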
human GcgR = human GcgR (Homo sapiens, UniProt P47871); assay: Functional cAMP activity in the presence of 1% HSA; settings: read-out: cAMP Rel EC50, hGcgR
Sequence of human GcgR (P47871 26-477): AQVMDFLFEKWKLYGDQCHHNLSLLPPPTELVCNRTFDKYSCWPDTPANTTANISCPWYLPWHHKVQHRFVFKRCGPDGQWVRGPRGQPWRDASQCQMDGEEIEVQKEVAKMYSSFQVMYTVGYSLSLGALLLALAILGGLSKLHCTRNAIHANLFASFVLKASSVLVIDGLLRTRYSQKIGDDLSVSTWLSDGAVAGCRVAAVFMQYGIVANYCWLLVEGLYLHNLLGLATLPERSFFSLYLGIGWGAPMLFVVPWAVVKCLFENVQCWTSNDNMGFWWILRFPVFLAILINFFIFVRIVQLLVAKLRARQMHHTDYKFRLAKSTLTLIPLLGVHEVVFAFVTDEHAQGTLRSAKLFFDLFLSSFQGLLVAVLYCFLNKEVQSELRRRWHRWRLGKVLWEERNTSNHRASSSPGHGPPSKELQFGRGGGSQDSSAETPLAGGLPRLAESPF

Sequence of hGcgR (P47871 26-477): as above
T2 sequence (P43220 24-463): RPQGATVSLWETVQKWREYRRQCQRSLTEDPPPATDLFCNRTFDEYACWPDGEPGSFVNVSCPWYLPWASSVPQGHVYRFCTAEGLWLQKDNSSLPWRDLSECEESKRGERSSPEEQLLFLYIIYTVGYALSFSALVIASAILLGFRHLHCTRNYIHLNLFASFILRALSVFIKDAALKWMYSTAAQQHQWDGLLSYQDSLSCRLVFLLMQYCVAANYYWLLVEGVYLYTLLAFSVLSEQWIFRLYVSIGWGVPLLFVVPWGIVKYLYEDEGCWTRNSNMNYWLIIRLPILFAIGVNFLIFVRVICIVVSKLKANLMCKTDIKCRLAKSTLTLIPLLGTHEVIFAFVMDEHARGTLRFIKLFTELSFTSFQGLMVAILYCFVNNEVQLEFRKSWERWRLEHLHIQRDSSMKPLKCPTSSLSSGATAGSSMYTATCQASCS

| Structure (SMILES) | EC50 (hGIPR [1]) [nM] | EC50 (hGcgR) [nM] | EC50 (hGLP-1R [2]) [nM] | EC50 (hGIPR [3]) [nM] | EC50 (hGLP-1R [4]) [nM] | EC50 (human GcgR) [nM] |
| --- | --- | --- | --- | --- | --- | --- |
| CC[C@H](C)[C@H](NC(=O)[C@H](CC(C)C)NC(=O)[C@](C)(Cc1ccc(O)cc1)NC(=O)[C@@H](CCC(=O)O)NC(=O)[C@@H](NC(=O)[C@H](Cc1ccccc1)NC(=O)[C@H](CCCN)NC(=O)C(C)(C)NC(=O)[C@H](CCC(N)=O)NC(=O)[C@H](C)NC(=O)[C@H](CCCCNC(=O)COCCOCCNC(=O)CC[C@H](NC(=O)CCCCCCCCCCCCCCCCC(=O)O)C(=O)O)NC(=O)[C@H](CCCN)NC(=O)[C@H](CC(=O)O)NC(=O)[C@H](CC(C)C)NC(=O)[C@](C)(CC(C)C)NC(=O)[C@@H](NC(=O)[C@](C)(CO)NC(=O)[C@H](Cc1ccncc1)NC(=O)[C@H](CC(=O)O)NC(=O)[C@H](CO)NC(=O)[C@@H](NC(=O)[C@](C)(Cc1ccccc1F)NC(=O)[C@@H](NC(=O)CNC(=O)[C@H](CCC(N)=O)NC(=O)C(C)(C)NC(=O)[C@@H](N)Cc1ccc(O)cc1)[C@@H](C)O)[C@@H](C)O)[C@@H](C)CC)[C@@H](C)CC)C(=O)N[C@@H](CCC(=O)O)C(=O)NCC(=O)NCC(=O)N1CCC[C@H]1C(=O)N[C@@H](CO)C(=O)N[C@@H](CO)C(=O)NCC(=O)N[C@@H](CCC(=O)O)C(=O)N1CCC[C@H]1C(=O)N[C@@H](CCC(=O)O)C(=O)N1CCC[C@H]1C(=O)N[C@@H](CCC(=O)O)C(N)=O [Example 461] (H-Y[Aib]QGT[αMePhe(2-F)]TSD[4Pal][αMeS]I[αMeL]LD[Orn]K([AEEA-γGlu-C18 diacid])AQ[Aib][Orn]FI[dE][αMeY]LIEGGPSSGEPEPE-NH2) | 0.0171 | 1.53 | 12 | 2.51 | 0.194 | 131 |
| CC[C@H](C)[C@H](NC(=O)[C@H](Cc1ccccc1)NC(=O)[C@H](C)NC(=O)C(C)(C)NC(=O)[C@H](CCC(N)=O)NC(=O)[C@H](C)NC(=O)[C@H](CCCCNC(=O)COCCOCCNC(=O)CC[C@H](NC(=O)CCCCCCCCCCCCCCCCC(=O)O)C(=O)O)NC(=O)[C@H](CCCCN)NC(=O)[C@H](CC(=O)O)NC(=O)[C@H](CC(C)C)NC(=O)[C@H](CC(C)C)NC(=O)[C@@H](NC(=O)[C@](C)(CO)NC(=O)[C@H](Cc1ccncc1)NC(=O)[C@H](CC(=O)O)NC(=O)[C@H](CO)NC(=O)[C@@H](NC(=O)[C@](C)(Cc1ccccc1F)NC(=O)[C@@H](NC(=O)CNC(=O)[C@H](CCC(N)=O)NC(=O)C(C)(C)NC(=O)[C@@H](N)Cc1ccc(O)cc1)[C@@H](C)O)[C@@H](C)O)[C@@H](C)CC)C(=O)N[C@@H](CCC(=O)O)C(=O)N[C@@H](Cc1ccc(O)cc1)C(=O)N[C@@H](CC(C)C)C(=O)N[C@@H](CCC(=O)O)C(=O)N[C@@H](CCC(=O)O)C(=O)NCC(=O)NCC(=O)N1CCC[C@H]1C(=O)N[C@@H](CO)C(=O)N[C@@H](CO)C(=O)NCC(=O)N[C@@H](C)C(=O)N1CCC[C@H]1C(=O)N1CCC[C@H]1C(=O)N1CCC[C@H]1C(=O)N[C@@H](CCC(=O)O)C(N)=O [Example 464] (H-Y[Aib]QGT[αMePhe(2-F)]TSD[4Pal][αMeS]ILLDKK([AEEA-γGlu-C18 diacid])AQ[Aib]AFIEYLEEGGPSSGAPPPE-NH2) | 0.072 | 1.25 | 45.5 | 19.9 | 0.466 | 194 |
| CC[C@H](C)[C@H](NC(=O)[C@H](Cc1ccccc1)NC(=O)[C@H](C)NC(=O)C(C)(C)NC(=O)[C@H](CCC(N)=O)NC(=O)[C@H](C)NC(=O)[C@H](CCCCNC(=O)COCCOCCNC(=O)CC[C@H](NC(=O)CCCCCCCCCCCCCCCCC(=O)O)C(=O)O)NC(=O)[C@H](CCCCN)NC(=O)[C@H](CC(=O)O)NC(=O)[C@H](CC(C)C)NC(=O)[C@H](CC(C)C)NC(=O)[C@@H](NC(=O)[C@](C)(CO)NC(=O)[C@H](Cc1cccnc1)NC(=O)[C@H](CC(=O)O)NC(=O)[C@H](CO)NC(=O)[C@@H](NC(=O)[C@](C)(Cc1ccccc1F)NC(=O)[C@@H](NC(=O)CNC(=O)[C@H](CCC(N)=O)NC(=O)C(C)(C)NC(=O)[C@@H](N)Cc1ccc(O)cc1)[C@@H](C)O)[C@@H](C)O)[C@@H](C)CC)C(=O)N[C@@H](CCC(=O)O)C(=O)N[C@@H](Cc1ccc(O)cc1)C(=O)N[C@@H](CC(C)C)C(=O)N[C@@H](CCC(=O)O)C(=O)N[C@@H](CCC(=O)O)C(=O)NCC(=O)NCC(=O)N1CCC[C@H]1C(=O)N[C@@H](CO)C(=O)N[C@@H](CO)C(=O)NCC(=O)N[C@@H](C)C(=O)N1CCC[C@H]1C(=O)N1CCC[C@H]1C(=O)N1CCC[C@H]1C(=O)N[C@@H](CCC(=O)O)C(N)=O [Example 465] (H-Y[Aib]QGT[αMePhe(2-F)]TSD[3Pal][αMeS]ILLDKK([AEEA-γGlu-C18 diacid])AQ[Aib]AFIEYLEEGGPSSGAPPPE-NH2) | 0.148 | 1.5 | 56.3 | 44.6 | 0.575 | 233 |
| CC[C@H](C)[C@H](NC(=O)[C@H](Cc1ccccc1)NC(=O)[C@H](C)NC(=O)C(C)(C)NC(=O)[C@H](CCC(N)=O)NC(=O)[C@H](C)NC(=O)[C@H](CCCCNC(=O)COCCOCCNC(=O)CC[C@H](NC(=O)CCCCCCCCCCCCCCCCC(=O)O)C(=O)O)NC(=O)[C@H](CCCN)NC(=O)[C@H](CC(=O)O)NC(=O)[C@H](CC(C)C)NC(=O)[C@](C)(CC(C)C)NC(=O)[C@@H](NC(=O)[C@](C)(CO)NC(=O)[C@H](Cc1ccncc1)NC(=O)[C@H](CC(=O)O)NC(=O)[C@H](CO)NC(=O)[C@@H](NC(=O)[C@](C)(Cc1ccccc1F)NC(=O)[C@@H](NC(=O)CNC(=O)[C@H](CCC(N)=O)NC(=O)C(C)(C)NC(=O)[C@@H](N)Cc1c[nH]cn1)[C@@H](C)O)[C@@H](C)O)[C@@H](C)CC)C(=O)N[C@H](CCC(=O)O)C(=O)N[C@@H](Cc1ccc(O)cc1)C(=O)N[C@@H](CC(C)C)C(=O)N[C@@H](CC(C)C)C(=O)N[C@@H](CCC(=O)O)C(=O)NCC(=O)NCC(=O)N1CCC[C@H]1C(=O)N[C@@H](CO)C(=O)N[C@@H](CO)C(=O)NCC(=O)N[C@@H](CCC(=O)O)C(=O)N1CCC[C@H]1C(=O)N1CCC[C@H]1C(=O)N1CCC[C@H]1C(=O)N[C@@H](CCC(=O)O)C(N)=O [Example 466] (H-H[Aib]QGT[αMePhe(2-F)]TSD[4Pal][αMeS]I[αMeL]LD[Orn]K([AEEA-γGlu-C18 diacid])AQ[Aib]AFI[dE]YLLEGGPSSGEPPPE-NH2; N-terminus assumed) | 0.0466 | 5.84 | 13.3 | 5.65 | 0.207 | 348 |
